Data on seven compounds can be found in US11649246B2, “Salts of 4-amino-N-(l-((3-chloro-2-fluorophenyl)amino)-6-methylisoquinolin-5-yl)thieno[3,2-D]pyrimidine-7-carboxamide, and crystalline forms thereof” (Hanmi Pharm. Co., Ltd., priority 2017, dated 2023).

Counter-ions that a name gives are not always drawn.

Holding throughout (type): physicochemical
The nature of data set [1]: Hygroscopicity / water content at 25° C. and 75% RH. Particulars: for Water Content (%): salt as prepared, before humidity exposure. As to the method:
Various salt forms of Formula (I) were prepared from Formula (I) free base and characterized by water solubility, PXRD, DSC, DVS and hygroscopicity.

A short description of data set [2]: Salt screening: solubility by HPLC according to KP, USP and EP general chapters. Particulars: water, Example 1B salts. Here is the method: For each Example 1B salt, a mixture of 40 mL (20 v/w) of a suitable solvent and 2 g Formula (I) free base was formed with agitation at room temperature. The indicated acid (2.2 eq.) was added to the mixture and salt formation was monitored by visual check. The resulting solid bis-acid salt was stirred for 24 hr at room temperature then filtered, and washed with a suitable solvent.
The water content, solubility in water (mg/mL), appearance, salt yield (%) and PXRD results for each of the salts of Example 1B are summarized in Table 4 where “MsOH” refers to methane sulfonic acid; “BsOH” refers to benzenesulfonic acid; “OW” refers to off-white; “W” refers to white; “Cryst” refers to crystalline; and “Amorph” refers to amorphous. Solubility was measured by HPLC according to KP, USP and EP general chapters.

The nature of data set [3]: Stress stability test at 60° C. To be noted: for physicochemical stability (summary in words): up to 4 weeks. As to the method:
In order to compare physicochemical stability among the crystalline form prepared in Example 3 (crystalline Formula (I) bis-hydrochloride Form I) and 16 (Formula (I) crystalline free base), and the amorphous form prepared in Comparative Example 1, a stress stability test was conducted by storing samples at 60° C., for different periods of time up to 4 weeks.

Data set [4] is described as follows: Water content of Form VI after humidity exposure (conversion to Form I). As to the method:
Crystalline Form VI was converted to Form I by two methods. In a first method, Form VI was exposed to a relative humidity of 60% at 25° C. In a second method, Form VI was exposed to a relative humidity of 20% at 21° C.

Turning to `Cc1ccc2c(Nc3cccc(Cl)c3F)nccc2c1NC(=O)c1csc2c(N)ncnc12` [HBr, 4-amino-N-(1-((3-chloro-2-fluorophenyl)amino)-6-methylisoquinolin-5-yl)thieno[3,2-d]pyrimidine-7-carboxamide], in data set [1], the “Water Content (%)” value is reported as 2.9%. Besides, in data set [2], the “H2O Solubility” value came to 50 µg/mL.

Consider `Cc1ccc2c(Nc3cccc(Cl)c3F)nccc2c1NC(=O)c1csc2c(N)ncnc12` [Example 16, 4-amino-N-(1-((3-chloro-2-fluorophenyl)amino)-6-methylisoquinolin-5-yl)thieno[3,2-d]pyrimidine-7-carboxamide], for which the “Purity(%) (A % by HPLC)” value in data set [3] (2 weeks), in data set [3] (7 days) and in data set [3] (Initial) was 99.7% each time. Moreover, the “Total impurities(%) (A % by HPLC)” value in data set [3] (2 weeks), in data set [3] (7 days) and in data set [3] (Initial) was 0.29% in each case. For the same compound, the “physicochemical stability (summary in words)” value in data set [3] (listed as crystalline form of the free base) is “remarkably superior stability over the amorphous form”.

As for `Cc1ccc2c(Nc3cccc(Cl)c3F)nccc2c1NC(=O)c1csc2c(N)ncnc12` [Comparative Example 1, 4-amino-N-(1-((3-chloro-2-fluorophenyl)amino)-6-methylisoquinolin-5-yl)thieno[3,2-d]pyrimidine-7-carboxamide], the “Purity(%) (A % by HPLC)” value came to 99.5% in data set [3] (2 weeks); 99.3% in data set [3] (4 weeks); 99.7% in data set [3] (1 day); 99.7% in data set [3] (3 days); 99.6% in data set [3] (7 days); 99.7% in data set [3] (Initial). The “Total impurities(%) (A % by HPLC)” value in data set [3] (2 weeks) stood at 0.485%; in data set [3] (4 weeks), 0.68%; in data set [3] (1 day), 0.30%; in data set [3] (3 days), 0.31%; in data set [3] (7 days), 0.38%; in data set [3] (Initial) it was 0.32%. Besides, in data set [3] (listed as amorphous form), the “physicochemical stability (summary in words)” value is “change of purity after 7 days”.

Consider `Cc1ccc2c(Nc3cccc(Cl)c3F)nccc2c1NC(=O)c1csc2c(N)ncnc12` [MsOH, 4-amino-N-(1-((3-chloro-2-fluorophenyl)amino)-6-methylisoquinolin-5-yl)thieno[3,2-d]pyrimidine-7-carboxamide], for which the “Water Content (%)” value in data set [1] is listed as 2.1%. For the same compound, in data set [2], the “H2O Solubility” value is 50 µg/mL.

In the case of `Cc1ccc2c(Nc3cccc(Cl)c3F)nccc2c1NC(=O)c1csc2c(N)ncnc12` [Formula (I) bis-hydrogensulfate salt, 4-amino-N-(1-((3-chloro-2-fluorophenyl)amino)-6-methylisoquinolin-5-yl)thieno[3,2-d]pyrimidine-7-carboxamide], the “water content after hygroscopicity test” value in data set [1] (25° C. and 75% RH) was 17.1%. For the same compound, the “Water Content (%)” value in data set [1] and in data set [1] (listed as H2SO4) was 2.6% in each case. Further, in data set [2] (listed as H2SO4), the “H2O Solubility” value amounted to 160 µg/mL.

In the case of `Cc1ccc2c(Nc3cccc(Cl)c3F)nccc2c1NC(=O)c1csc2c(N)ncnc12` [Form VI, 4-amino-N-(1-((3-chloro-2-fluorophenyl)amino)-6-methylisoquinolin-5-yl)thieno[3,2-d]pyrimidine-7-carboxamide], the water content in data set [4] (after exposure at 21° C. and 20% RH for 3 hours) was determined as 8.0%; in data set [4] (after exposure at 21° C. and 20% RH for 6 hours) it was 10.4%; in data set [4] (after exposure at 21° C. and 20% RH for 5 days) it was 10.1%; in data set [4] (after exposure at 25° C. and 60% RH) it was 11.3%.

As to `Cc1ccc2c(Nc3cccc(Cl)c3F)nccc2c1NC(=O)c1csc2c(N)ncnc12` [BsOH, 4-amino-N-(1-((3-chloro-2-fluorophenyl)amino)-6-methylisoquinolin-5-yl)thieno[3,2-d]pyrimidine-7-carboxamide], in data set [1], the “Water Content (%)” value is recorded as 0.9%. The “H2O Solubility” value in data set [2] is 30 µg/mL.
